Data published in patent publication US20260317299A1, “PIKFYVE PROTEIN KINASE DEGRADATION AGENT AND USE THEREOF” (Shanghai Institute of Organic Chemistry, Chinese Academy of …, priority 2023, published 2026).

The compounds below were run against T1, PIKfyve (Homo sapiens, UniProt Q9Y2I7) (assay: Degradation of PIKfyve proteins in VCaP tumor cells (24 h, Western blot)). Details: 37° C., compared with DMSO control, WB, read-out: DC50 (concentration that achieves 50% degradation activity).
T1 construct: endogenous in cells; host or cells: VCaP
Format: cell-based
In short: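 VCaP cells (5×10^6 cells/ml) treated with a range of compound concentrations at 37° C for 24 h, then lysed in SDS buffer. PIKfyve level measured by Western blot with GAPDH as loading control and ECL detection. DC50 is the concentration giving 50% degradation relative to DMSO control.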

T1 sequence (Q9Y2I7 whole entry): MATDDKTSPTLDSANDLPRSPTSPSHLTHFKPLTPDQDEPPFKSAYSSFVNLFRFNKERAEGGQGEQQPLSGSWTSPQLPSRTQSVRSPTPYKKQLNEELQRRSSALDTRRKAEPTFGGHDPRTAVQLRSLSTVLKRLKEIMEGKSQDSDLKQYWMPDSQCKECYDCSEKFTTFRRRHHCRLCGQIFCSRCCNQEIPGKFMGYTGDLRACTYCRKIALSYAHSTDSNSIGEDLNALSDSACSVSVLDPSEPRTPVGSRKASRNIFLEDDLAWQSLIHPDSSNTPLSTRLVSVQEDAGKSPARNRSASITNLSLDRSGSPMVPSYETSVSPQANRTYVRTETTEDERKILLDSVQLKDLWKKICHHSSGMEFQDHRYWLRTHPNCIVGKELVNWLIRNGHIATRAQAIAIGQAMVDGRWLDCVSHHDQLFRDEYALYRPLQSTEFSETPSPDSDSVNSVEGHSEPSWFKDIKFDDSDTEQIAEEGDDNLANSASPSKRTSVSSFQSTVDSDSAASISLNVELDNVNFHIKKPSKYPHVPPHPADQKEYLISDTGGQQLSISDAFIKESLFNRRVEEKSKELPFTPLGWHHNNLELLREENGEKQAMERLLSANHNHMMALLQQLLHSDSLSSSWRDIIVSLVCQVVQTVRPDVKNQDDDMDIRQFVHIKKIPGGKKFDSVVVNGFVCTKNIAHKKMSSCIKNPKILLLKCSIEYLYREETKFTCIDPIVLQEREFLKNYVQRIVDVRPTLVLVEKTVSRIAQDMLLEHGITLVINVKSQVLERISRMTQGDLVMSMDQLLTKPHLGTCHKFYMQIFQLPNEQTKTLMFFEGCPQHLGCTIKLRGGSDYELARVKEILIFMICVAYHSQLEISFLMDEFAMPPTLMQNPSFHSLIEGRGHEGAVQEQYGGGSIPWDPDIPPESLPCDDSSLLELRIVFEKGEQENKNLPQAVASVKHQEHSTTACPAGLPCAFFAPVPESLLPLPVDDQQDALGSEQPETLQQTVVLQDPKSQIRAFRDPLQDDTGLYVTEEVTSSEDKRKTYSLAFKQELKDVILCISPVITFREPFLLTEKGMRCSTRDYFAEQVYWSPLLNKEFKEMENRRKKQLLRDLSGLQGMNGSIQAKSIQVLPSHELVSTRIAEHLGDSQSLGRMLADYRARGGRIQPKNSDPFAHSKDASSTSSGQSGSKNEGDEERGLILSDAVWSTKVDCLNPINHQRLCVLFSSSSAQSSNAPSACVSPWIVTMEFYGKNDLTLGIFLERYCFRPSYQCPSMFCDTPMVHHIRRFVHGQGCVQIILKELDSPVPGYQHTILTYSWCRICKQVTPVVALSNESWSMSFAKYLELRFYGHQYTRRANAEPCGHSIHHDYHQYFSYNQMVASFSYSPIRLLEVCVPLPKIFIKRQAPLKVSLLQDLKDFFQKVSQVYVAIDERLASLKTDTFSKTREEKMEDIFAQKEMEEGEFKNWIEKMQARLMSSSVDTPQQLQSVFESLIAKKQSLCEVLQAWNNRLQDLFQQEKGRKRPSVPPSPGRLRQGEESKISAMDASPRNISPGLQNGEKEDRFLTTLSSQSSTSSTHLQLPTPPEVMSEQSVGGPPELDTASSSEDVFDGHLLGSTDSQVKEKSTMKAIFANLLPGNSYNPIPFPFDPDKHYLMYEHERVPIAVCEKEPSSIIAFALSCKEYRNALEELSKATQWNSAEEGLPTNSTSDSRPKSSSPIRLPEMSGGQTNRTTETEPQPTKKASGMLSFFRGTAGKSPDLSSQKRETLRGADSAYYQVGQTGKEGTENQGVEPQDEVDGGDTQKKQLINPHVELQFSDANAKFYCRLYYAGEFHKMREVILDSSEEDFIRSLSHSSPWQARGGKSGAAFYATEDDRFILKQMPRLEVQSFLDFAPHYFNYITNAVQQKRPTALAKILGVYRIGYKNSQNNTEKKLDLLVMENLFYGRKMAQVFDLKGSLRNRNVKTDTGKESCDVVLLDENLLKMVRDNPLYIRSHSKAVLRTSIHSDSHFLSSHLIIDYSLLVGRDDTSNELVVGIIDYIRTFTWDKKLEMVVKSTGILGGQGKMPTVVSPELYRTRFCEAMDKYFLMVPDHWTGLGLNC

SMILES | DC50
Cc1cccc(-c2ccn(-c3cc(N4CCOCC4)nc(OCCc4ccc(C#CC5CCN(C(=O)CC[C@H](NC(=O)[C@@H]6C[C@@H](O)CN6C(=O)[C@@H](NC(=O)C6(F)CC6)C(C)(C)C)c6ccc(-c7scnc7C)cc6)CC5)cc4)n3)n2)c1 [Example 71, (2S,4R)-1-((S)-2-(1-fluorocyclopropane-1-carboxamido)-3,3-dimethylbutanoyl)-4-hydroxy-N—((S)-1-(4-(4-methylthiazol-5-yl)phenyl)-4-(4-((4-(2-((4-morpholino-6-(3-(m-tolyl)-1H-pyrazol-1-yl)pyrimidin-2-yl)oxy)ethyl)phenyl)ethynyl)piperidin-1-yl)-4-oxobutyl) pyrrolidine-2-carboxamide] | 1 to 100 nM
Cc1cccc(/C=N/Nc2cc(N3CCOCC3)nc(OCCc3ccc(NC(=O)CSC(C)(C)[C@H](NC(=O)C4(F)CC4)C(=O)N4C[C@H](O)C[C@H]4C(=O)NCc4ccc(-c5scnc5C)cc4)cc3)n2)c1 [Example 57, (2S,4R)-1-((R)-2-(1-fluorocyclopropane-1-carboxamido)-3-methyl-3-((2-((4-(2-((4-(2-((E)-3-methylbenzylidene)hydrazino)-6-morpholinopyrimidin-2-yl)oxy)ethyl)phenyl)amino)-2-oxoethyl)thio)butanoyl)-4-hydroxy-N-(4-(4-methylthiazol-5-yl)benzyl)pyrrolidine-2-carboxamide] | 1 to 100 nM
Cc1cccc(-c2ccn(-c3cc(N4CCOCC4)nc(OC4CCN(c5ccc(N6CCN(c7cc8c(cc7F)C(=O)N(C7CCC(=O)NC7=O)C8=O)CC6)cc5)CC4)n3)n2)c1 (centres unmarked) [Example 89, 2-(2,6-Dioxopiperidin-3-yl)-5-fluoro-6-(4-(4-(4-((4-morpholino-6-(3-(m-tolyl)-1H-pyrazol-1-yl)pyrimidin-2-yl)oxy)piperidin-1-yl)phenyl)piperazin-1-yl)isoindoline-1,3-dione] | 100 to 10000 nM
Cc1cccc(-c2ccn(-c3cc(N4CCOCC4)nc(OC4CCN(c5ccc(NC(=O)C[C@H](NC(=O)[C@@H]6C[C@@H](O)CN6C(=O)[C@@H](NC(=O)C6(F)CC6)C(C)(C)C)c6ccc(-c7scnc7C)cc6)cc5)CC4)n3)n2)c1 [Example 67, (2S,4R)-1-((S)-2-(1-fluorocyclopropane-1-carboxamido)-3,3-dimethylbutanoyl)-4-hydroxy-N—((S)-1-(4-(4-methylthiazol-5-yl)phenyl)-3-((4-(4-((4-morpholino-6-(3-(m-tolyl)-1H-pyrazol-1-yl)pyrimidin-2-yl)oxy)piperidin-1-yl)phenyl)amino)-3-oxopropyl)pyrrolidine-2-carboxamide] | 1 to 100 nM
Cc1cccc(/C=N/Nc2cc(N3CCOCC3)nc(OCCc3ccc(NC(=O)CCCCCNC(=O)CSC(C)(C)[C@H](NC(=O)C4(F)CC4)C(=O)N4C[C@H](O)C[C@H]4C(=O)NCc4ccc(-c5scnc5C)cc4)cc3)n2)c1 [Example 60, (2S,4R)-1-((R)-2-(1-fluorocyclopropane-1-carboxamido)-3-methyl-3-((2-((6-((4-(2-((4-(2-((E)-3-methylbenzylidene)hydrazino)-6-morpholinopyrimidin-2-yl)oxy)ethyl)phenyl)amino)-6-oxohexyl)amino)-2-oxoethyl)thio)butanoyl)-4-hydroxy-N-(4-(4-methylthiazol-5-yl)benzyl)pyrrolidine-2-carboxamide] | 100 to 10000 nM
Cc1cccc(-c2ccn(-c3cc(N4CCOCC4)nc(OCCc4ccc(NC(=O)NC5CCN(C(=O)C[C@H](NC(=O)[C@@H]6C[C@@H](O)CN6C(=O)[C@@H](NC(=O)C6(F)CC6)C(C)(C)C)c6ccc(-c7scnc7C)cc6)CC5)cc4)n3)n2)c1 [Example 78, (2S,4R)-1-((S)-2-(1-fluorocyclopropane-1-carboxamido)-3,3-dimethylbutanoyl)-4-hydroxy-N—((S)-1-(4-(4-methylthiazol-5-yl)phenyl)-3-(4-(3-(4-(2-((4-morpholino-6-(3-(m-tolyl)-1H-pyrazol-1-yl)pyrimidin-2-yl)oxy)ethyl)phenyl)ureido)piperidin-1-yl)-3-oxopropyl) pyrrolidine-2-carboxamide] | 1 to 100 nM
Cc1cccc(-c2ccn(-c3cc(N4CCOCC4)nc(OCCc4ccc(N5CCN(C(=O)C[C@H](NC(=O)[C@@H]6C[C@@H](O)CN6C(=O)[C@@H](NC(=O)C6(F)CC6)C(C)(C)C)c6ccc(-c7scnc7C)cc6)CC5)cc4)n3)n2)c1 [Example 75, (2S,4R)-1-((S)-2-(1-fluorocyclopropane-1-carboxamido)-3,3-dimethylbutanoyl)-4-hydroxy-N—((S)-1-(4-(4-methylthiazol-5-yl)phenyl)-3-(4-(4-(2-((4-morpholino-6-(3-(m-tolyl)-1H-pyrazol-1-yl)pyrimidin-2-yl)oxy)ethyl)phenyl)piperazin-1-yl)-3-oxopropyl)pyrrolidine-2-carboxamide] | 1 to 100 nM
Cc1cccc(/C=N/Nc2cc(N3CCOCC3)nc(OCCc3ccc(NC(=O)CCCCCCCCCC(=O)N[C@H](C(=O)N4C[C@H](O)C[C@H]4C(=O)NCc4ccc(-c5scnc5C)cc4)C(C)(C)C)cc3)n2)c1 [Example 44, N^1—((S)-1-((2S,4R)-4-hydroxy-2-((4-(4-methylthiazol-5-yl)benzyl)carbamoyl)pyrrolidine-1-yl)-3,3-dimethyl-1-oxobutan-2-yl)-N^11-(4-(2-((4-(2-((E)-3-methylbenzylidene) hydrazino)-6-morpholinopyrimidin-2-yl)oxy)ethyl)phenyl)undecanediamide] | 1 to 100 nM
Cc1cccc(-c2ccn(-c3cc(N4CCOCC4)nc(OCCc4ccc(NC(=O)CNC(=O)CC[C@H](NC(=O)[C@@H]5C[C@@H](O)CN5C(=O)[C@@H](NC(=O)C5(F)CC5)C(C)(C)C)c5ccc(-c6scnc6C)cc5)cc4)n3)n2)c1 [Example 65, (2S,4R)-1-((S)-2-(1-fluorocyclopropane-1-carboxamido)-3,3-dimethylbutanoyl)-4-hydroxy-N—((S)-1-(4-(4-methylthiazol-5-yl)phenyl)-4-((2-((4-(2-((4-morpholino-6-(3-(m-tolyl)-1H-pyrazol-1-yl)pyrimidin-2-yl)oxy)ethyl)phenyl)amino)-2-oxoethyl)amino)-4-oxobutyl)pyrrolidine-2-carboxamide] | 1 to 100 nM
Cc1cccc(/C=N/Nc2cc(N3CCOCC3)nc(OCCc3ccc(NC(=O)CCCNC(=O)CSC(C)(C)[C@H](NC(=O)C4(F)CC4)C(=O)N4C[C@H](O)C[C@H]4C(=O)NCc4ccc(-c5scnc5C)cc4)cc3)n2)c1 [Example 59, (2S,4R)-1-((R)-2-(1-fluorocyclopropane-1-carboxamido)-3-methyl-3-((2-((4-((4-(2-((4-(2-((E)-3-methylbenzylidene)hydrazino)-6-morpholinopyrimidin-2-yl)oxy)ethyl)phenyl)amino)-4-oxobutyl)amino)-2-oxoethyl)thio)butanoyl)-4-hydroxy-N-(4-(4-methylthiazol-5-yl)benzyl)pyrrolidine-2-carboxamide] | 100 to 10000 nM

Now from value to compound:

DC50 | SMILES
1 to 100 nM | Cc1cccc(/C=N/Nc2cc(N3CCOCC3)nc(OCCc3ccc(NC(=O)CCCCCCC(=O)Nc4cccc5c4CN(C4CCC(=O)NC4=O)C5=O)cc3)n2)c1 (centres unmarked) [Example 21, (E)-N^1-(2-(2,6-dioxopiperidin-3-yl)-1-oxoisoindolin-4-yl)-N^8-(4-(2-((4-(2-(3-methylbenzylidene)hydrazino)-6-morpholinopyrimidin-2-yl)oxy)ethyl)phenyl)octanediamide]
100 to 10000 nM | Cc1cccc(/C=N/Nc2cc(N3CCOCC3)nc(OCCc3ccc(NC(=O)CCCNc4ccc5c(c4)C(=O)N(C4CCC(=O)NC4=O)C5=O)cc3)n2)c1 (centres unmarked) [Example 16, (E)-4-((2-(2,6-dioxopiperidin-3-yl)-1,3-dioxoisoindolin-5-yl)amino)-N-(4-(2-((4-(2-(3-methylbenzylidene)hydrazino)-6-morpholinopyrimidin-2-yl)oxy)ethyl)phenyl) butanamide]
100 to 10000 nM | Cc1cccc(/C=N/Nc2cc(N3CCOCC3)nc(OCCc3ccc(NC(=O)CCCCCCCCC(=O)Nc4cccc5c4C(=O)N(C4CCC(=O)NC4=O)C5)cc3)n2)c1 (centres unmarked) [Example 35, (E)-N^1-(2-(2,6-dioxopiperidin-3-yl)-3-oxoisoindolin-4-yl)-N^10-(4-(2-((4-(2-(3-methylbenzylidene)hydrazino)-6-morpholinopyrimidin-2-yl)oxy)ethyl)phenyl)decanediamide]
100 to 10000 nM | Cc1cccc(/C=N/Nc2cc(N3CCOCC3)nc(OCCc3ccc(NC(=O)CCCCCCCCC(=O)Nc4cccc5c4CN(C4CCC(=O)NC4=O)C5=O)cc3)n2)c1 (centres unmarked) [Example 22, (E)-N^1-(2-(2,6-dioxopiperidin-3-yl)-1-oxoisoindolin-4-yl)-N^10-(4-(2-((4-(2-(3-methylbenzylidene)hydrazino)-6-morpholinopyrimidin-2-yl)oxy)ethyl)phenyl)decanediamide]
100 to 10000 nM | Cc1cccc(/C=N/Nc2cc(N3CCOCC3)nc(OCCc3ccc(NC(=O)CCCCC(=O)Nc4ccc5c(c4)CN(C4CCC(=O)NC4=O)C5=O)cc3)n2)c1 (centres unmarked) [Example 25, (E)-N^1-(2-(2,6-dioxopiperidin-3-yl)-1-oxoisoindolin-5-yl)-N^6-(4-(2-((4-(2-(3-methylbenzylidene)hydrazino)-6-morpholinopyrimidin-2-yl)oxy)ethyl)phenyl)adipamide]
1 to 100 nM | Cc1cccc(/C=N/Nc2cc(N3CCOCC3)nc(OCCc3ccc(NC(=O)CCCNC(=O)COc4cc(-c5scnc5C)ccc4CNC(=O)[C@@H]4C[C@@H](O)CN4C(=O)[C@@H](NC(=O)C4(F)CC4)C(C)(C)C)cc3)n2)c1 [Example 55, (2S,4R)-1-((S)-2-(1-fluorocyclopropane-1-carboxamido)-3,3-dimethylbutanoyl)-4-hydroxy-N-(2-(2-((4-((4-(2-((4-(2-((E)-3-methylbenzylidene)hydrazino)-6-morpholinopyrimidin-2-yl)oxy)ethyl)phenyl)amino)-4-oxobutyl)amino)-2-oxoethoxy)-4-(4-methylthiazol-5-yl)benzyl)pyrrolidine-2-carboxamide]
100 to 10000 nM | Cc1cccc(/C=N/Nc2cc(N3CCOCC3)nc(OCCc3ccc(NC(=O)COc4cccc5c4C(=O)N(C4CCC(=O)NC4=O)C5=O)cc3)n2)c1 (centres unmarked) [Example 1, (E)-2-((2-(2,6-dioxopiperidin-3-yl)-1,3-dioxoisoindolin-4-yl)oxy)-N-(4-(2-((4-(2-(3-methylbenzylidene)hydrazino)-6-morpholinopyrimidin-2-yl)oxy)ethyl)phenyl)acetamide]
